# Tests used:
# YFP-CFBE cells = experiment: YFP fluorescence plate reader assay of anion transport in YFP-CFBE cells; type: cell-based; conditions: for anion transport in YFP-CFBE cells (in words) / concentration–response relationship in YFP-CFBE compared with YFP-FRT cells: 1–50 μM; for anionophore concentration matching the effect of UTP (1 mM): anion transport equivalent to CaCC activation, YFP-CFBE cells; for effect of CaCC activation on anionophore-mediated anion transport: anionophore 50 μM with UTP 1 mM; for effect of CaCCinh-A01 on transport by anionophore: anionophore 50 μM, CaCCinh-A01 10 μM
# Description: To begin to test anionophores in CF airway epithelial cells, we utilised the CF bronchial epithelial cell line CFBE41o^– engineered to express YFP-H148Q/I152L (YFP-CFBE cells).[34],[35] One advantage of using YFP-CFBE cells is that they endogenously express the Ca^2+-activated Cl^– channel (CaCC), unlike YFP-FRT cells.[33] Thus, using YFP-CFBE cells, we directly compared anion transport by anionophores with that of the CaCC, an alternative pathway to restore anion transport in CF.[13]
# FRT cells stably expressing the halide sensor YFP-H148Q/I152L6 were generous gifts of AS Verkman (University of California, San Francisco), while CFBE41o- cells7 stably expressing YFP (YFP-CFBE cells) were a generous gift of LJV Galietta (Telethon Institute for Genetics and Medicine). YFP-FRT cells were cultured as described previously for FRT cells8 except that media contained 10% fetal bovine serum, 2 mM L-glutamine and the selection agent G418 (YFP-FRT cells, 0.5 mg ml-1; WT-CFTR-YFP-FRT cells, 0.75 mg ml-1) or zeocin (F508del-CFTR-YFP-FRT cells, 0.5 mg ml-1). YFP-CFBE cells were cultured in minimal essential medium (MEM) supplemented with 10% fetal bovine serum, 2 mM L-glutamine, 100 U ml-1 penicillin and […] streptomycin. All cells were incubated at 37 °C in a humidified atmosphere with 5% CO2.
# For fluorescence microplate reader studies, cells were seeded in 96-well plates and grown in culture media at 37 °C in a humidified atmosphere with 5% CO2 for 3 – 4 days until […]
# 90% confluent. […]
# Fluorescence plate reader assay […]
# quenching of YFP fluorescence at 37 °C using a microplate reader following the method of Galietta et al..9 The microplate reader (model: FLUORstar Omega; BMG LABTECH Ltd., Aylesbury, UK) was equipped with a syringe pump and excitation (500 ± 10 nm) and emission (535 ± 15 nm) filters (Chroma Technology GmbH, Olching, Germany). After washing cells twice with PBS (composition (mM): 137 NaCl, 2.7 KCl, 8.1 Na2HPO4, 1.5 KH2PO4, 1 CaCl2 and 0.5 MgCl2, pH 7.40), cells were incubated with test anionophores (1 – 50 µM) or the vehicle (DMSO [0.1 – 0.5% v v-1]) in 40 µl of PBS for 10 – 120 minutes according to the experimental design. Other compounds, including forskolin, ivacaftor and channel inhibitors were added to […]
# the PBS bathing cells 10 minutes prior to PBS iodide addition, whereas UTP was added to cells with the PBS iodide solution. Fluorescence was measured for 14 seconds; 2 seconds before and 12 seconds after injection of 110 µl PBS iodide solution (137 mM Cl- replaced by I-) into each well (to obtain a final concentration of I- of 100 mM).
# We expressed cell fluorescence values (F) relative to the fluorescence value immediately before I- injection (F0), excluding the initial decrease, which likely represents the quenching of extracellular YFP released from cells and signal reduction accompanying the increase in solution volume bathing cells. To quantify anion transport by test anionophores, we determined the initial slope of the fluorescence decay following I - addition by fitting first order exponential functions to the last 12 seconds of each fluorescence recording. In each experim ent, n values represent the mean of two replicates and all treatments were tested at least three times using different microplates. […]
# FRT cells was selected and the cells were perfused with (i) PBS for 5 minutes then (ii) PBS containing I- (10 mM) (made by preparing PBS with 127 mM NaCl to maintain osmolarity) for 5 minutes and finally (iii) PBS for 30 minutes to remove thoroughly I- from the perfusion chamber. YFP-FRT cells were repeatedly treated with I- (10 mM) and then washed with PBS […]
# During all interventions, the rate of solution perfusion was 8 – 10 ml min-1; temperature was 37 °C and except for the first 15 minutes of PBS washing, no data were collected between cycles of I- perfusion and PBS […]
# For cell fluorescence measurements, we used the Volocity (Improvision) data acquisition and analysis system and a cooled CCD camera (Hamamatsu ORCA ER firewall) […]
# YFP-FRT cells = experiment: IncuCyte ZOOM apoptosis (annexin V red) in YFP-FRT cells; type: cell-based; conditions: for time from which apoptosis is apparent: 30 and 50 μM, P < 0.05 vs. DMSO; for induction of apoptosis: all concentrations tested, 24 h period
# Procedure: To test for the induction of apoptosis by anionophores, we also used the IncuCyte ZOOMTM (Essen Bioscience) live-cell analysis system. YFP-FRT cells were seeded and grown on 96-well plates as described above for cell viability studies. After 48 h, the YFP-FRT culture media was replaced with fresh culture media containing test anionophores or the vehicle (DMSO 0.5% v v-1) and IncuCyte annexin V red reagent (Essen Bioscience) was added following the manufacturer’s instructions before the YFP-FRT cells were transferred to the IncuCyte ZOOMTM. At 2 h intervals over a 24 h period, 4 images of each well on 96-well plates were acquired; the phase contrast images were used to determine the total number of cells per well, while the fluorescence images to identify the number of apoptotic cells labelled red by the IncuCyte annexin V red reagent. In each experiment, one data point is the average value […]
# Except for ivacaftor and lumacaftor (Selleck Chemicals; Stratech Scientific Ltd., Newmarket, UK), chemicals were supplied by the Sigma-Aldrich Company Ltd. (now Merck KGaA) (Gillingham, UK). UTP was dissolved in distilled water, forskolin in methanol, while anionophores and channel modulators were prepared in DMSO. Stock solutions were stored at –20 °C except those of anionophores, which were stored at room temperature. Immediately before use, stock solutions were diluted to final concentrations. Precautions against light-sensitive reactions were observed when using anionophores and channel modulators. DMSO […]
# Previous work has identified that some anionophores trigger apop totic cell death.18,19,2018,19 Using the IncuCyte ZOOMTM live-cell analysis system and the IncuCyte annexin V red reagent, we assessed whether the anionophores 11, 12, 15 and 19 induce […]
# concentrations ≥ 10 µM with the effects of 30 and 50 µM apparent from as early as 2 h (P < […]
# concentrations tested over the 24 h period studied (P > 0.05 vs. DMSO 0.5% v v-1) (Fig. S25). […]
# the data re-affirm the promising biological activity of anionophore 11.
SMILES,anion transport in YFP-CFBE cells (in words) (YFP-CFBE cells),concentration–response relationship in YFP-CFBE compared with YFP-FRT cells (YFP-CFBE cells),anionophore concentration matching the effect of UTP (1 mM) (YFP-CFBE cells),effect of CaCC activation on anionophore-mediated anion transport (YFP-CFBE cells),effect of CaCCinh-A01 on transport by anionophore (YFP-CFBE cells),time from which apoptosis is apparent (YFP-FRT cells),induction of apoptosis (YFP-FRT cells),effect of increasing incubation period from 10 to 120 minutes on anion transport (YFP-CFBE cells; 10 μM),effect of increasing incubation period from 10 to 120 minutes on anion transport (YFP-CFBE cells; 50 μM)
CCOC(=O)[C@]12CC[C@@H](NC(=S)Nc3cc(C(F)(F)F)cc(C(F)(F)F)c3)C[C@@H]1C[C@@H](NC(=S)Nc1cc(C(F)(F)F)cc(C(F)(F)F)c1)CC2 [Compound 15],mediated anion transport,less efficacious,1 µM,either without effect or weakly additive,not observed,≥ 2 h,positive effects,–,–
CCOC(=O)[C@]12CC[C@@H](NC(=S)Nc3ccc([N+](=O)[O-])cc3)C[C@@H]1C[C@@H](NC(=S)Nc1ccc([N+](=O)[O-])cc1)CC2 [Compound 12],mediated anion transport,identical,1 µM,either without effect or weakly additive,not observed,≥ 2 h,positive effects,increased noticeably,dramatic acceleration
FC(F)(F)c1cc(NC(=S)NCCN(CCNC(=S)Nc2cc(C(F)(F)F)cc(C(F)(F)F)c2)CCNC(=S)Nc2cc(C(F)(F)F)cc(C(F)(F)F)c2)cc(C(F)(F)F)c1 [Compound 19],mediated anion transport,similar,1 µM,strongly additive,direct inhibitory effect,≥ 2 h,positive effects,increased noticeably,increased noticeably
